According to patent US20260347364A1, “PYRAZOLO[4,3-F]QUINAZOLINE DERIVATIVES AS MODULATORS OF G12D MUTANT KRAS USEFUL FOR THE TREATMENT OF CANCER” (JAZZ PHARMACEUTICALS IRELAND LTD., priority 2023, published 2026):

Tests used:
KRAS WT = biological target: T1, KRAS WT (Homo sapiens, UniProt P01116); experiment: HTRF nucleotide exchange assay, KRAS WT; type: biochemical; settings: HTRF nucleotide exchange assay (NEA), class symbols
T1 construct: aa1-188 KRAS WT

KRAS G12D = biological target: T2, KRAS G12D (Homo sapiens, UniProt P01116, G12D); experiment: HTRF nucleotide exchange assay, KRAS G12D; type: biochemical; settings: class symbols; for IC50: HTRF nucleotide exchange assay (NEA)
T2 construct: aa1-188 KRAS WT, HRAS WT, NRAS WT, or KRAS containing the G12D

| IC50 (KRAS WT) [nM] | IC50 (KRAS G12D) [nM] | KRAS^G12D NEA (KRAS G12D) | SMILES |
| --- | --- | --- | --- |
| 100 to 10000 | ≤ 10 | – | C#Cc1c(F)ccc2cc(O)cc(-c3cc4nc(OC[C@@]56CCCN5C[C@H](F)C6)nc(N5CC6CNCC6C5)c4c4cn(C)nc34)c12 (stereo partly drawn) [Example 34, 4-[9-(2,3,3a,4,6,6a-hexahydro-1H-pyrrolo[3,4-c]pyrrol-5-yl)-2-methyl-7-[[(2R,8S)-2-fluoro-1,2,3,5,6,7-hexahydropyrrolizin-8-yl]methoxy]pyrazolo[4,3-f]quinazolin-4-yl]-5-ethynyl-6-fluoro-naphthalen-2-ol] |
| ≤ 10 | ≤ 10 | – | CCc1c(F)ccc2cc(O)cc(-c3c(C)c4nc(OCC5(CN6CCCC6)CC5)nc(N5CCOCC(C)(O)C5)c4c4cn(C)nc34)c12 (centres unmarked) [Example 146, 4-[4-(8-ethyl-7-fluoro-3-hydroxy-1-naphthyl)-2,5-dimethyl-7-[[1-(pyrrolidin-1-ylmethyl)cyclopropyl]methoxy]pyrazolo[4,3-f]quinazolin-9-yl]-6-methyl-1,4-oxazepan-6-ol] |
| 10 to 100 | ≤ 10 | – | C#Cc1c(F)ccc2cc(O)cc(-c3cc4nc(OC[C@@]56CCCN5C[C@H](F)C6)nc(N5CCCNCC5)c4c4cn(C)nc34)c12 (single isomer, unassigned) [Example 36] |
| 10 to 100 | ≤ 10 | – | CCc1c(F)ccc2cc(O)cc(-c3cc4nc(OC[C@@]56CCCN5C[C@H](F)C6)nc(N5CCCn6nc(C#N)cc6C5)c4c4cn(C)nc34)c12 [Example 73, 5-[4-(8-ethyl-7-fluoro-3-hydroxy-1-naphthyl)-7-[[(2R,8S)-2-fluoro-1,2,3,5,6,7-hexahydropyrrolizin-8-yl]methoxy]-2-methyl-pyrazolo[4,3-f]quinazolin-9-yl]-4,6,7,8-tetrahydropyrazolo[1,5-a][1,4]diazepine-2-carbonitrile] |
| 10 to 100 | 10 to 100 | – | CCc1c(F)ccc2cc(O)cc(-c3cc4nc(OC[C@@]56CCCN5C[C@H](F)C6)nc(N5CCC(C)(O)C5)c4c4cn(C)nc34)c12 (stereo partly drawn) [Example 116, 1-[4-(8-ethyl-7-fluoro-3-hydroxy-1-naphthyl)-2-methyl-7-[[(2R,8S)-2-fluoro-1,2,3,5,6,7-hexahydropyrrolizin-8-yl]methoxy]pyrazolo[4,3-f]quinazolin-9-yl]-3-methyl-pyrrolidin-3-ol] |
| ≤ 10 | ≤ 10 | – | CCc1c(F)ccc2cc(O)cc(-c3cc4nc(OCC56CCCN5CCC6)nc(N5CCCOCC5)c4c4cn(C)nc34)c12 [Example 6, 5-ethyl-6-fluoro-4-[7-(1,2,3,5,6,7-hexahydropyrrolizin-8-ylmethoxy)-2-methyl-9-(1,4-oxazepan-4-yl)pyrazolo[4,3-f]quinazolin-4-yl]naphthalen-2-ol] |
| 100 to 10000 | – | D (<49% inhibition at 10 μM) | Cn1cc2c(n1)c(-c1cccc3sc(N)c(C#N)c13)cc1nc(OC[C@@]34CCCN3C[C@H](F)C4)nc(N3CCCOCC3)c12 [Example 3, 2-amino-4-[2-methyl-9-(1,4-oxazepan-4-yl)-7-[[(2R,8S)-2-fluoro-1,2,3,5,6,7-hexahydropyrrolizin-8-yl]methoxy]pyrazolo[4,3-f]quinazolin-4-yl]benzothiophene-3-carbonitrile] |
| ≤ 10 | ≤ 10 | – | CCc1c(F)ccc2cc(O)cc(-c3c(F)c4nc(OCC5(CN6CCCC6)CC5)nc(N5CCOCC(C)(O)C5)c4c4cn(C)nc34)c12 (centres unmarked) [Example 155, 4-[4-(8-ethyl-7-fluoro-3-hydroxy-1-naphthyl)-5-fluoro-2-methyl-7-[[1-(pyrrolidin-1-ylmethyl)cyclopropyl]methoxy]pyrazolo[4,3-f]quinazolin-9-yl]-6-methyl-1,4-oxazepan-6-ol] |
| 10 to 100 | 10 to 100 | – | C#Cc1c(F)ccc2cc(O)cc(-c3cc4nc(OC[C@@]56CCCN5C[C@H](F)C6)nc(N5CCCC(C)(O)C5)c4c4cn(C)nc34)c12 (stereo partly drawn) [Example 33, 1-[4-(8-ethynyl-7-fluoro-3-hydroxy-1-naphthyl)-2-methyl-7-[[(2R,8S)-2-fluoro-1,2,3,5,6,7-hexahydropyrrolizin-8-yl]methoxy]pyrazolo[4,3-f]quinazolin-9-yl]-3-methyl-piperidin-3-ol] |
| 100 to 10000 | 100 to 10000 | – | CCc1c(F)ccc2cc(O)cc(-c3cc4nc(OC[C@@]56CCCN5C[C@H](F)C6)nc(N5CCCC(C)(C#N)C5)c4c4cn(C)nc34)c12 (stereo partly drawn) [Example 132, 1-[4-(8-ethyl-7-fluoro-3-hydroxy-1-naphthyl)-2-methyl-7-[[(2R,8S)-2-fluoro-1,2,3,5,6,7-hexahydropyrrolizin-8-yl]methoxy]pyrazolo[4,3-f]quinazolin-9-yl]-3-methyl-piperidine-3-carbonitrile] |
| ≤ 10 | ≤ 10 | – | CCc1c(F)ccc2cc(O)cc(-c3c(F)c4nc(OCC5(CN6CCCCC6)CC5)nc(N5CCOCC(C)(O)C5)c4c4cn(C)nc34)c12 (centres unmarked) [Example 172, 4-[4-(8-ethyl-7-fluoro-3-hydroxy-1-naphthyl)-5-fluoro-2-methyl-7-[[1-(1-piperidylmethyl)cyclopropyl]methoxy]pyrazolo[4,3-f]quinazolin-9-yl]-6-methyl-1,4-oxazepan-6-ol] |
| ≤ 10 | ≤ 10 | – | CCc1c(F)ccc2cc(O)cc(-c3cc4nc(OC[C@@]56CCCN5C[C@H](F)C6)nc(N5CCC(O)C5)c4c4cn(C)nc34)c12 (mixture of isomers) [Example 117, 1-[4-(8-ethyl-7-fluoro-3-hydroxy-1-naphthyl)-2-methyl-7-[[rac-(2R,8S)-2-fluoro-1,2,3,5,6,7-hexahydropyrrolizin-8-yl]methoxy]pyrazolo[4,3-f]quinazolin-9-yl]pyrrolidin-3-ol] |
| ≤ 10 | ≤ 10 | – | CCc1c(F)ccc2cc(O)cc(-c3c(C)c4nc(OC[C@@]56CCCN5C[C@H](F)C6)nc(N5CC6CCC5CN6)c4c4cn(C)nc34)c12 (stereo partly drawn) [Example 216, 4-[9-(2,5-diazabicyclo[2.2.2]octan-2-yl)-2,5-dimethyl-7-[[(2R,8S)-2-fluoro-1,2,3,5,6,7-hexahydropyrrolizin-8-yl]methoxy]pyrazolo[4,3-f]quinazolin-4-yl]-5-ethyl-6-fluoro-naphthalen-2-ol] |

The remaining lines, values behind:

| SMILES | IC50 (KRAS WT) [nM] | IC50 (KRAS G12D) [nM] | KRAS^G12D NEA (KRAS G12D) |
| --- | --- | --- | --- |
| CCc1c(F)ccc2cc(O)cc(-c3c(F)c4nc(OCC5(CN6CCC(O)CC6)CC5)nc(N5CCOCC(C)(O)C5)c4c4cn(C)nc34)c12 (centres unmarked) [Example 213, 4-[4-(8-ethyl-7-fluoro-3-hydroxy-1-naphthyl)-5-fluoro-7-[[1-[(4-hydroxy-1-piperidyl)methyl]cyclopropyl]methoxy]-2-methyl-pyrazolo[4,3-f]quinazolin-9-yl]-6-methyl-1,4-oxazepan-6-ol] | ≤ 10 | ≤ 10 | – |
| CCc1c(F)ccc2cc(O)cc(-c3cc4nc(O[C@@H](C)[C@@H]5CCCN5C)nc(N5CCCn6nc(C(=O)N(C)C)cc6C5)c4c4cn(C)nc34)c12 (racemic) [Example 54, 5-[4-(8-ethyl-7-fluoro-3-hydroxy-1-naphthyl)-2-methyl-7-[rac-(1S)-1-[rac-(2S)-1-methylpyrrolidin-2-yl]ethoxy]pyrazolo[4,3-f]quinazolin-9-yl]-N,N-dimethyl-4,6,7,8-tetrahydropyrazolo[1,5-a][1,4]diazepine-2-carboxamide] | 100 to 10000 | 100 to 10000 | – |
| CCc1c(F)ccc2cc(O)cc(-c3c(F)c4nc(OCC5(CN6CCC(F)(F)CC6)CC5)nc(N5CCOCC(C)(O)C5)c4c4cn(C)nc34)c12 (centres unmarked) [Example 229, 4-[7-[[1-[(4,4-difluoro-1-piperidyl)methyl]cyclopropyl]methoxy]-4-(8-ethyl-7-fluoro-3-hydroxy-1-naphthyl)-5-fluoro-2-methyl-pyrazolo[4,3-f]quinazolin-9-yl]-6-methyl-1,4-oxazepan-6-ol] | ≤ 10 | ≤ 10 | – |
| CCc1c(F)ccc2cc(O)cc(-c3c(F)c4nc(OCC5(CN6CCOCC6)CC5)nc(N5CCOCC(C)(O)C5)c4c4cn(C)nc34)c12 (centres unmarked) [Example 162, 4-[4-(8-ethyl-7-fluoro-3-hydroxy-1-naphthyl)-5-fluoro-2-methyl-7-[[1-(morpholinomethyl)cyclopropyl]methoxy]pyrazolo[4,3-f]quinazolin-9-yl]-6-methyl-1,4-oxazepan-6-ol] | ≤ 10 | ≤ 10 | – |
| CCc1c(F)ccc2cc(O)cc(-c3cc4nc(OC[C@@H]5CCN5C)nc(N5CCCn6nc(C(=O)N(C)C)cc6C5)c4c4cn(C)nc34)c12 [Example 70] | 10 to 100 | ≤ 10 | – |
| CCc1c(F)ccc2cc(O)cc(-c3c(F)c4nc(OCC5(C#N)CCOC5)nc(N5CCOCC(C)(O)C5)c4c4cn(C)nc34)c12 (centres unmarked) [Example 164, 3-[[4-(8-ethyl-7-fluoro-3-hydroxy-1-naphthyl)-5-fluoro-9-(6-hydroxy-6-methyl-1,4-oxazepan-4-yl)-2-methyl-pyrazolo[4,3-f]quinazolin-7-yl]oxymethyl]tetrahydrofuran-3-carbonitrile] | 10 to 100 | ≤ 10 | – |
| CCc1c(F)ccc2cc(O)cc(-c3c(F)c4nc(OCC56COC(COC)(C5)C6)nc(N5CCOCC(C)(O)C5)c4c4cn(C)nc34)c12 (centres unmarked) [Example 165, 4-[4-(8-ethyl-7-fluoro-3-hydroxy-1-naphthyl)-5-fluoro-7-[[1-(methoxymethyl)-2-oxabicyclo[2.1.1]hexan-4-yl]methoxy]-2-methyl-pyrazolo[4,3-f]quinazolin-9-yl]-6-methyl-1,4-oxazepan-6-ol] | 10 to 100 | ≤ 10 | – |
| CCc1c(F)ccc2cc(O)cc(-c3c(C)c4nc(OCC5(CF)COC5)nc(N5CC6CCC5CN6)c4c4cn(C)nc34)c12 (centres unmarked) [Example 240, 4-[9-(2,5-diazabicyclo[2.2.2]octan-2-yl)-7-[[3-(fluoromethyl)oxetan-3-yl]methoxy]-2,5-dimethyl-pyrazolo[4,3-f]quinazolin-4-yl]-5-ethyl-6-fluoro-naphthalen-2-ol] | 100 to 10000 | 10 to 100 | – |
| CCc1c(F)ccc2cc(O)cc(-c3c(C)c4nc(OCC5(CF)COC5)nc(N5CCCn6nc(C(=O)N(C)C)cc6C5)c4c4cn(C)nc34)c12 [Example 215] | 100 to 10000 | 10 to 100 | – |
